Test results reported in patent US9234006B2, “Compounds” (Novacta Biosystems Limited, priority 2011, dated 2016).
Where a name gives a salt, the structure may show the parent alone. Read-outs that look alike come from different tables or passages of the source. Marks after values point to notes of the source that are not given here. Where a SMILES comes first, the peptide text is derived from it. Bridges are numbered along the chain shown (N, C = ends). [ ]: non-standard residue; d: D form. The star is where a group is joined. ξ: configuration not given here. Thr(3ξ) = CC(O)[C@H](N)C(=O)O; Dab = NCC[C@H](N)C(=O)O; X1 = CCCCCCC(O)C(=O)*; GABA = NCCCC(=O)O

Tests used:
[1] = test system: E. coli clinical isolates and resistant strains; assay type: cell-based; conditions: clinical isolates and resistant strains
Method: (§1) The in vitro antibacterial activities of the compounds of examples 2 and 6 were evaluated against a panel of […] Gram-negative bacterial isolates alongside Colistin. The panel consisted of 100 clinical isolates of each of A. baumannii, E. coli, K. pneumoniae and P. aeruginosa. The panel represented the current epidemiology in Europe and the USA and included a number of relevant strains with defined resistant phenotypes to current clinically-used antibacterial agents. These resistant strains included 20 A. baumannii, 22 E. coli, 25 K. pneumoniae and 20 P. aeruginosa strains.
(§2) All compounds were tested up to a maximum concentration of 64 μg/mL with the exception of colistin, which was evaluated up to a maximum concentration of 16 μg/mL.

[2] = test system: K. pneumoniae clinical isolates and resistant strains; assay type: cell-based; conditions: clinical isolates and resistant strains
Method: as §1, §2

[3] = test system: A. baumannii clinical isolates and resistant strains; assay type: cell-based; conditions: clinical isolates and resistant strains
Method: as §1, §2

A. baumannii ATCCBAA-747 = assay: MIC susceptibility testing, broth microdilution in CaMHB; assay type: cell-based, Acinetobacter baumannii
In short: (§3)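 Assays used cation-adjusted Mueller-Hinton broth, run in duplicate. Bacteria were taken from an overnight culture (37° C, 250 rpm, 18-20 hours), diluted 100-fold, grown to OD600 0.2-0.3, then diluted 100-fold again for inoculation.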

A. baumannii NCTC13423 = assay: as above; assay type: cell-based, Acinetobacter baumannii
In short: as §3

[4] = parameters: species or system rats; conditions: rat, in vivo, 8 mg/kg
Method: Colistin and the example compounds were prepared in saline. Compounds were introduced via the jugular canula twice a day 7 hours apart for seven days. […] The dose regimen is set out in Table 8 below.

HK-2 cell line = conditions: 24 h incubation, resazurin reduction; Table 7
Method: The renal cell toxicity of the compounds was assessed in an in vitro assay using the HK-2 cell line, an immortalized proximal tubule cell line derived from a normal human kidney. The endpoint to describe the toxicity of the compounds was the reduction of resazurin correlating with the metabolic activity of the cells.
Cells were cultured in 150 cm^2 flasks in 25 mL supplemented KSF (with 5 ng/mL EGF and 50 μg/mL BPE). Cells were maintained at 70% confluence with a maximum of 25 passages. Day 1: Media was removed and cells were washed with 10 ml DPBS. […] After 1 to 2 minutes incubation, 14 ml media was added to the flask to inactivate the trypsin. The cell suspension was transferred to a centrifuge tube and the cells pelleted at 1000 rpm for 6 minutes. The cell pellet was then resuspended in fresh media supplemented with EGF and BPE. […] 7500 cells were dispensed in each well in a volume of 160 μl and incubated at 37° C. for 24 h.
Day 2: Test compounds were prepared directly into the media. […] The microtiter plates were removed from the incubator and the media replaced with 100 μl of the dilutions of the compound solution. Every set of concentration was done in triplicate, and positive and negative controls were added to each plate. The plates were then incubated for 24 h at 37° C. with 5% CO2 in a humidified atmosphere.
Day 3: The reagent containing the resazurin (CellTiter-Blue, Promega) was diluted in PBS (1:4) and added at 20% (v/v) to each well. The plates were then incubated at 37° C. for 2 h before the fluorescent reduction product was detected.
Media only background values were subtracted before the data was analysed using GraphPad Prism. Compound concentration values were plotted as log values to enable a dose-response curve to be fitted and IC50 values determined (Table 7).
The renal cell toxicity of the additional example compounds was assessed in an in vitro assay using the HK-2 cell as described in the example above.

[5] = test system: Escherichia coli isolate ATCC25922; assay type: in vivo; conditions: thigh
Method: Groups of 5 female specific-pathogen-free CD-1 mice weighing 22±2 g were used. The animals were made neutropenic by intraperitoneal administration of cyclophosphamide on days −4 (150 mg/kg) and −1 (100 mg/kg). […] Examples 2, 4, 5, 6, 7, 8, 10, 11 and polymyxin B were prepared in Normal Saline at 2 mg/mL and the solution was adjusted to pH 6-7 by addition of 0.1M H2SO4 or 4.2% NaHCO3 as required. Twenty-four hours after infection, the mice were euthanized humanely. The muscle of the right thigh of each animal was harvested, homogenized, serially diluted and plated on Brain Heart Infusion agar+0.5% charcoal (w/v) for CFU determination. Decrease of the total CFU of right thigh as compared to control counts at 24 hrs post-infection was determined for each dose group. […] The in vivo efficacy of the compound of Example 14 was evaluated in a mouse thigh infection model of E. coli. using the methods described in the examples above. The result is summarized in Table 5A in comparison with Polymyxin B.

[6] = Table 4A, different batches of cation-adjusted Muller-Hinton broth

Molecule	MIC50 Clinical isolates [1] [µg/mL]	MIC50 Resistant strains [1] [µg/mL]	MIC90 Clinical isolates [1] [µg/mL]	MIC90 Resistant strains [1] [µg/mL]	MIC Range Resistant strains [1] [µg/mL]	MIC50 Clinical isolates [2] [µg/mL]	MIC50 Resistant strains [2] [µg/mL]	MIC90 Clinical isolates [2] [µg/mL]	MIC90 Resistant strains [2] [µg/mL]	MIC50 Clinical isolates [3] [µg/mL]	MIC50 Resistant strains [3] [µg/mL]	MIC90 Clinical isolates [3] [µg/mL]	MIC90 Resistant strains [3] [µg/mL]	MIC Range Resistant strains [3] [µg/mL]	MIC (A. baumannii ATCCBAA-747; Table 4) [micrograms/mL]	MIC (A. baumannii ATCCBAA-747; [6]) [micrograms/mL]	MIC (A. baumannii NCTC13423; Table 4) [micrograms/mL]	MIC (A. baumannii NCTC13423; [6]) [micrograms/mL]	levels of the renal biomarker NAG in urine compared to Colistin at the same dose regimen [4]	levels of the renal biomarker albumin in urine compared to Colistin at the same dose regimen [4]	also measured
CCCCCCC(O)C(=O)N[C@H](C(=O)N[C@@H](CCN)C(=O)N[C@H]1CCNC(=O)[C@H](C(C)O)NC(=O)[C@H](CCN)NC(=O)[C@H](CCN)NC(=O)[C@H](CC(C)C)NC(=O)[C@@H](Cc2ccccc2)NC(=O)[C@H](CCN)NC1=O)C(C)O (stereo partly drawn) [Example 2, [2(R,S)-2-Hydroxyoctanoyl] Polymyxin B Nonapeptide, Sulphate Salt] (X1-[Thr(3ξ)][Dab][Dab][Dab][dF]L[Dab][Dab][Thr(3ξ)]; lactam 3-C)	2	1	4	2	0.5 to 4	8	8	32	32	4	4	8	4	2 to 4	2	2	1	1	significantly reduced levels	significantly reduced levels	MIC Range Clinical isolates [1]: 1 to 16 µg/mL; MIC Range Clinical isolates [3]: 1 to 32 µg/mL; levels of the renal biomarker cystatin C in urine compared to Colistin at the same dose regimen [4]: significantly reduced levels
CC(C)C[C@@H]1NC(=O)[C@@H](Cc2ccccc2)NC(=O)[C@H](CCN)NC(=O)[C@@H](NC(=O)[C@H](CCN)NC(=O)[C@@H](NC(=O)CCCN)[C@@H](C)O)CCNC(=O)[C@H]([C@@H](C)O)NC(=O)[C@H](CCN)NC(=O)[C@H](CCN)NC1=O [Example 6, 4-Aminobutanoyl Polymyxin B Nonapeptide, Sulphate Salt] (H-[GABA]T[Dab][Dab][Dab][dF]L[Dab][Dab]T; lactam 4-C)	2	0.5	8	4	0.06 to 4	>64	>64	>64	>64	2	2	8	4	1 to 4					significantly reduced levels	significantly reduced levels	levels of the renal biomarker cystatin C in urine compared to Colistin at the same dose regimen [4]: significantly reduced levels; IC50 HK-2 cells (HK-2 cell line): 154 µg/mL
Polymyxin B [reference compound]															0.25	0.125	0.25	<0.06			Mean log10 CFU reduction vs. control ([5]; neutropenic CD-1 mice, total daily dosage 3 mg/kg (1.5 mg/kg BID) subcutaneous, 24 h post-infection, Table 5): 2.5 ^a log10 CFU; Mean log10 CFU reduction vs. control ([5]; neutropenic CD-1 mice, total daily dosage 10 mg/kg (5 mg/kg BID) subcutaneous, 24 h post-infection, Table 5): 4.2 ^a log10 CFU; Mean log10 CFU reduction vs. control ([5]; neutropenic mice, total daily dosage 3 mg/kg, additional study, Table 5A): 3.75 log10 CFU; Mean log10 CFU reduction vs. control ([5]; neutropenic mice, total daily dosage 10 mg/kg, additional study, Table 5A): 4.87 log10 CFU; IC50 HK-2 cells (HK-2 cell line): 11^b μg/mL
